# Data taken from patent publication US20120053148A1, “INHIBITORS OF HEPATITIS C VIRUS” (GILEAD SCIENCES, INC., priority 2010, published 2012).
# System: HCV Replicon IB
# Assay: HCV replicon assay in Huh-7 cells, genotype 1b (Rluc luciferase readout)
# Type: cell-based, hepatitis C virus
# Conditions: HCV1B replicon, Huh-7 cells, 3 days; read-out: EC50_HCV1B_
row,SMILES,EC50 [nM]
1,Cc1cc(-c2nnc(NC3CCC(O)(CF)C3)o2)nc2c(C(C)(C)C)cc(OCC(F)(F)F)cc12 (stereo not shown) [Compound 490],50
2,Cc1cc(-c2nnc(N[C@H]3CC[C@@](C)(O)CC3)o2)nc2c(C(C)(C)C)cc(OCC(F)(F)F)cc12 [Compound 496],13.7
3,Cc1cc(-c2nnc(N[C@H]3CC[C@@](C)(O)CC3)o2)nc2c(C(C)(C)C)cc(OCC(F)(F)F)cc12 [Compound 497],73.7
4,COC[C@]1(O)C[C@H](Nc2nnc(-c3cc(C)c4cc(OCC(F)(F)F)cc(C(C)(C)C)c4n3)o2)C1 [Compound 504],9.86

# Same assay, conditions: Hepatitis C virus, Huh-7, 72 h, HCV1B replicon, Huh-7 cells, 3 days; read-out: EC50_HCV1B_
row,SMILES,EC50 [nM]
1,Cc1cc(C(=O)NC[C@@H]2CC3(CCN2)OCCO3)nc2c(C(C)(C)C)cc(C3CC3)cc12 [Compound 428],834
2,Cc1cc(C(=O)NC[C@@H]2C[C@](C)(O)CN2)nc2c(C(C)(C)C)cc(C3CC3)cc12 [Compound 429],294
3,CC[C@@]1(O)CN[C@H](CNC(=O)c2cc(C)c3cc(C4CC4)cc(C(C)(C)C)c3n2)C1 [Compound 430],1450
4,Cc1cc(C(=O)NC[C@@H]2CC3(CN2)OCCO3)nc2c(C(C)(C)C)cc(C3CC3)cc12 [Compound 431],8.04
5,CO[C@H]1CN[C@H](CNC(=O)c2nc(N)c3cc(C4CC4)cc(C(C)(C)C)c3n2)C1 [Compound 432],83.3
6,CC(C)(C)c1cc(C2CC2)cc2c(N)nc(C(=O)NCc3ncccn3)nc12 [Compound 433],1.19
7,Nc1nc(C(=O)NCc2cnccn2)nc2c(C(F)(F)F)cc(-c3ccccc3)cc12 [Compound 435],7.84
8,CO[C@@H]1CN[C@H](CNC(=O)c2nc(N)c3cc(-c4ccccc4)cc(C(F)(F)F)c3n2)C1 [Compound 436],589
9,Cc1cc(C(=O)NCC2CC(F)(F)CN2)nc2c(OC(F)(F)F)cc(C3CC3)cc12 (stereo not shown) [Compound 437],20.2
10,CO[C@@H]1CNC(CNC(=O)c2cc(C)c3cc(C4CC4)cc(OC(F)(F)F)c3n2)C1 (stereo partly shown) [Compound 438],46
11,Cc1cc(C(=O)Nc2cn[nH]c2)nc2c(OC(F)(F)F)cc(C3CC3)cc12 [Compound 439],1160
12,Cc1cc(C(=O)NCc2ncccn2)nc2c(OC(F)(F)F)cc(C3CC3)cc12 [Compound 440],10.2
13,Cc1cc(C(=O)NC[C@@H]2CS(=O)(=O)CCN2)nc2c(OC(F)(F)F)cc(C3CC3)cc12 [Compound 441],12.4
14,Cc1cc(C(=O)NC[C@@H]2CC3(CN2)OCCO3)nc2c(OC(F)(F)F)cc(C3CC3)cc12 [Compound 443],18.8
15,Cc1cc(-c2nnc(NCC3OCCO3)o2)nc2c(OC(F)(F)F)cc(C3CC3)cc12 [Compound 444],5.88
16,Cc1cc(OC(F)(F)F)c2nc(C(=O)NCc3cnccn3)cc(C)c2c1 [Compound 445],257
17,Cc1cc(OC(F)(F)F)c2nc(C(=O)NCc3ncccn3)cc(C)c2c1 [Compound 446],523
18,Cc1cc(C(=O)NCc2ncccn2)nc2c(OC(F)F)cc(OC(F)F)cc12 [Compound 447],37.5
19,Cc1cc(-c2nnc(NCC3OCCO3)o2)nc2c(C(C)(C)C)cc(OCC(F)(F)F)cc12 [Compound 448],1.57
20,Cc1cc(-c2nnc(NCCC(C)(C)O)o2)nc2c(C(C)(C)C)cc(OCC(F)(F)F)cc12 [Compound 449],11.3
21,Cc1cc(-c2nnc(N[C@@H]3CCOC3)o2)nc2c(C(C)(C)C)cc(OCC(F)(F)F)cc12 [Compound 450],3.15
22,Cc1cc(-c2nnc(N[C@H]3CCOC3)o2)nc2c(C(C)(C)C)cc(OCC(F)(F)F)cc12 [Compound 451],2.45

row,SMILES,EC50 [nM]
1,Cc1cc(-c2nnc(NCc3ccn[nH]3)o2)nc2c(C(C)(C)C)cc(OCC(F)(F)F)cc12 [Compound 452],19.6
2,Cc1cc(-c2nnc(NCC(=O)N(C)C)o2)nc2c(C(C)(C)C)cc(OCC(F)(F)F)cc12 [Compound 453],14.9
3,Cc1cc(-c2nnc(NCC3(C)OCCO3)o2)nc2c(C(C)(C)C)cc(OCC(F)(F)F)cc12 [Compound 454],2.27
4,Cc1cc(-c2nnc(NCC[C@@H](C)O)o2)nc2c(C(C)(C)C)cc(OCC(F)(F)F)cc12 [Compound 455],3.05
5,Cc1cc(-c2nnc(NCC[C@H](C)O)o2)nc2c(C(C)(C)C)cc(OCC(F)(F)F)cc12 [Compound 456],3.3
6,Cc1cc(-c2nnc(Nc3cccnc3)o2)nc2c(C(C)(C)C)cc(OCC(F)(F)F)cc12 [Compound 457],4.1
7,Cc1cc(-c2nnc(Nc3ccccn3)o2)nc2c(C(C)(C)C)cc(OCC(F)(F)F)cc12 [Compound 458],0.83
8,Cc1cc(-c2nnc(NCC(F)(F)CO)o2)nc2c(C(C)(C)C)cc(OCC(F)(F)F)cc12 [Compound 459],4.32
9,Cc1cc(-c2nnc(NC3CC(O)C3)o2)nc2c(C(C)(C)C)cc(OCC(F)(F)F)cc12 (stereo not shown) [Compound 461],1.38
10,Cc1cc(-c2nnc(N[C@H]3C[C@@H](O)C3)o2)nc2c(C(C)(C)C)cc(OCC(F)(F)F)cc12 [Compound 462],1.54
11,Cc1cc(-c2nnc(N[C@H]3C[C@H](O)C3)o2)nc2c(C(C)(C)C)cc(OCC(F)(F)F)cc12 [Compound 463],3.76
12,Cc1cc(-c2nnc(NC3CC(C)(O)C3)o2)nc2c(C(C)(C)C)cc(OCC(F)(F)F)cc12 (stereo not shown) [Compound 466],0.88
13,Cc1cc(-c2nnc(N[C@H]3C[C@](O)(CF)C3)o2)nc2c(C(C)(C)C)cc(OCC(F)(F)F)cc12 [Compound 467],0.63
14,Cc1cc(-c2nnc(N[C@H]3C[C@](O)(C(F)F)C3)o2)nc2c(C(C)(C)C)cc(OCC(F)(F)F)cc12 [Compound 468],0.36
15,Cc1cc(-c2nnc(NC3CC(O)(C(F)(F)F)C3)o2)nc2c(C(C)(C)C)cc(OCC(F)(F)F)cc12 (stereo not shown) [Compound 469],115
16,CC[C@]1(O)C[C@@H](Nc2nnc(-c3cc(C)c4cc(OCC(F)(F)F)cc(C(C)(C)C)c4n3)o2)C1 [Compound 478],1.48
17,Cc1cc(-c2nnc(NCC3OCCS3)o2)nc2c(C(C)(C)C)cc(OCC(F)(F)F)cc12 (stereo not shown) [Compound 479],1.14
18,Cc1cc(-c2nnc(N[C@H]3C[C@@H](OP(=O)(O)O)C3)o2)nc2c(C(C)(C)C)cc(OCC(F)(F)F)cc12 [Compound 480],1.24
19,Cc1cc(-c2nnc(N[C@H]3C[C@](O)(C(F)S(=O)(=O)c4ccccc4)C3)o2)nc2c(C(C)(C)C)cc(OCC(F)(F)F)cc12 (stereo partly shown) [Compound 481],2880
20,Cc1cc(-c2nnc(N[C@H]3C[C@](O)(CCF)C3)o2)nc2c(C(C)(C)C)cc(OCC(F)(F)F)cc12 [Compound 482],2.96
21,Cc1cc(-c2nnc(NCC3OCCS3(=O)=O)o2)nc2c(C(C)(C)C)cc(OCC(F)(F)F)cc12 (stereo not shown) [Compound 483],1.72
22,Cc1cc(-c2nnc(NCC3S(=O)(=O)CCS3(=O)=O)o2)nc2c(C(C)(C)C)cc(OCC(F)(F)F)cc12 [Compound 484],2190

row,SMILES,EC50 [nM]
1,Cc1cc(-c2nnc(NCC3COC3)o2)nc2c(C(C)(C)C)cc(OCC(F)(F)F)cc12 [Compound 485],1050
2,Cc1cc(-c2nnc(NCC3(C)COC3)o2)nc2c(C(C)(C)C)cc(OCC(F)(F)F)cc12 [Compound 486],1850
3,Cc1cc(-c2nnc(NC3COC3)o2)nc2c(C(C)(C)C)cc(OCC(F)(F)F)cc12 [Compound 487],41.5
4,Cc1cc(-c2nnc(NC3CCOCC3)o2)nc2c(C(C)(C)C)cc(OCC(F)(F)F)cc12 [Compound 488],6.82
5,Cc1cc(-c2nnc(NC3CCC(O)(CF)C3)o2)nc2c(C(C)(C)C)cc(OCC(F)(F)F)cc12 (stereo not shown) [Compound 489],26.7
6,Cc1cc(-c2nnc(N[C@H]3CC[C@](O)(CF)C3)o2)nc2c(C(C)(C)C)cc(OCC(F)(F)F)cc12 [Compound 491],0.57
7,Cc1cc(-c2nnc(N[C@H]3CC[C@@](O)(CF)C3)o2)nc2c(C(C)(C)C)cc(OCC(F)(F)F)cc12 [Compound 492],19.3
8,Cc1cc(-c2nnc(N[C@H]3CC[C@H](O)CC3)o2)nc2c(C(C)(C)C)cc(OCC(F)(F)F)cc12 [Compound 493],8.74
9,CSCOC1(C)CC(Nc2nnc(-c3cc(C)c4cc(OCC(F)(F)F)cc(C(C)(C)C)c4n3)o2)C1 (stereo not shown) [Compound 494],43.1
10,Cc1cc(-c2nnc(NC3CC(C)(OCS(C)(=O)=O)C3)o2)nc2c(C(C)(C)C)cc(OCC(F)(F)F)cc12 (stereo not shown) [Compound 495],38.4
11,Cc1cc(-c2nnc(N[C@H]3CC[C@@H](O)CC3)o2)nc2c(C(C)(C)C)cc(OCC(F)(F)F)cc12 [Compound 498],2.39
12,Cc1cc(-c2nnc(N[C@H]3C[C@](O)(CO)C3)o2)nc2c(C(C)(C)C)cc(OCC(F)(F)F)cc12 [Compound 499],16.8
13,Cc1cc(-c2nnc(N[C@H]3C[C@@](O)(CO)C3)o2)nc2c(C(C)(C)C)cc(OCC(F)(F)F)cc12 [Compound 500],7.57
14,Cc1cc(-c2nnc(NC3CSC3)o2)nc2c(C(C)(C)C)cc(OCC(F)(F)F)cc12 [Compound 505],6.25
15,Cc1cc(-c2nnc(NC3CS(=O)(=O)C3)o2)nc2c(C(C)(C)C)cc(OCC(F)(F)F)cc12 [Compound 506],62.5
16,Cc1cc(-c2nnc(N[C@H]3C[S@@+]([O-])C3)o2)nc2c(C(C)(C)C)cc(OCC(F)(F)F)cc12 [Compound 507],19.1
17,Cc1cc(-c2nnc(N[C@H]3C[S@+]([O-])C3)o2)nc2c(C(C)(C)C)cc(OCC(F)(F)F)cc12 [Compound 508],24.3
18,Cc1cc(C(=O)NC[C@@H]2CS(=O)(=O)CCN2)nc2c(C(C)(C)C)cc(OCC(F)(F)F)cc12 [Compound 509],3.61
19,Cc1cc(C(=O)NC[C@@H]2CC3(CN2)OCCO3)nc2c(C(C)(C)C)cc(OCC(F)(F)F)cc12 [Compound 510],9.8
20,Cc1cc(C(=O)NC[C@@H]2CC3(CN2)OCCO3)nc2c(C(F)(F)F)cc(OCC(F)(F)F)cc12 [Compound 511],32.3

# Same assay, conditions: Hepatitis C virus, Huh-7, 72 h; read-out: EC50_HCV1B_
row,SMILES,EC50 [nM]
1,CCOP(=O)(CNc1nnc(-c2cc(C)c3cc(OCC(F)(F)F)cc(C(C)(C)C)c3n2)o1)OCC [Compound 460],388
2,Cc1cc(-c2nnc(N[C@H]3C[C@@](CF)(OP(=O)(O)O)C3)o2)nc2c(C(C)(C)C)cc(OCC(F)(F)F)cc12 [Compound 470],0.72
